Results from patent publication US20090030073A1, “PLANT-DERIVED THERAPEUTIC AGENT FOR MALIGNANT” (priority 2006, published 2009).

System: neuroblastoma cell strains IMR-32, SK—N—SH, and NB-39
Test: MTT assay, anti-malignant-tumor effect on neuroblastoma cell strains
Assay type: cell-based
Details: 48 hours incubation
Description: The anti-malignant-tumor effect of compounds (1), (2a), (2b), and (2c) on neuroblastoma cell strains IMR-32, SK—N—SH, and NB-39 was investigated using the MTT assay.
Specifically, each type of cells was seeded onto a 96-well plate so that the cell density was adjusted to 1×10^4 cells/well, and each drug compound was added to the wells 24 hours after seeding, followed by incubation under 5%-CO2 at 37° C. for 48 hours. Subsequently, an MTT solution was added to the wells, and blue formazan formed three hours after addition was well-mixed through pipetting. The absorbance of each well was measured at 570 nm (top) and 655 nm (bottom), and the survival cell rate with respect to the control group was calculated. In this assay, formation of blue formazan caused by activity of mitochondria is observed only when cells survive.

C=CC[C@]12CC=CC(=O)[C@@]1(O)OC(c1ccc3c(c1)OCO3)[C@H]2C (stereo partly shown) [compound (2b), ferrearin C]
cytotoxicity to neuroblastoma cells (survival cell rate, FIGS. 2 to 13): intense cytotoxicity

C=CC[C@]12CC=CC(=O)[C@@]1(O)O[C@H](c1cc(OC)c3c(c1)OCO3)[C@H]2C [compound (2c), ferrearin G]
cytotoxicity to neuroblastoma cells (survival cell rate, FIGS. 2 to 13): intense cytotoxicity

C=CCOc1c(OC)cc2c(c1OC)O[C@H](c1ccc3c(c1)OCO3)[C@H]2C [compound (1)]
cytotoxicity to neuroblastoma cells (survival cell rate, FIGS. 2 to 13): intense cytotoxicity

C=CC[C@]12CC=CC(=O)[C@@]1(O)O[C@H](c1ccc(OC)c(OC)c1)[C@H]2C [compound (2a)]
cytotoxicity to neuroblastoma cells (survival cell rate, FIGS. 2 to 13): intense cytotoxicity
